Consider three compounds from patent publication US20040050294A1, “Coloring material and color filter” (Dai Nippon Printing Co., Ltd., priority 1999, published 2004).

Each structure is given as a SMILES string.

The series can be described thus: Solubility in solvents. In kind it is physicochemical. The settings on record: for solubility in solvents: PGMEA (methoxypropyl acetate): solvent PGMEA; for solubility in solvents: chloroform: solvent chloroform; for solubility in solvents: cyclohexanone: solvent cyclohexanone; for solubility in solvents: ethyl acetate: solvent ethyl acetate; for solubility in solvents: THF: solvent THF; for solubility in solvents: methanol: solvent methanol.

Take `CCC(C)(C)OC(=O)N1C(=O)C2=C(c3ccc(Cl)cc3)N(C(=O)OC(C)(C)CC)C(=O)C2=C1c1ccc(Cl)cc1` [DPP, N,N′-bis-tert-amyloxycarbonyl-1,4-diketo-3,6-di(4′-chlorophenyl)pyrrolo-[3,4-c]pyrrole, reference compound]: the “solubility in solvents: PGMEA (methoxypropyl acetate)” value (“solubility in solvents: PGMEA” below) is given as 5 % by weight, the “solubility in solvents: chloroform” value is 10 % by weight, the “solubility in solvents: cyclohexanone” value stood at 10 % by weight and the “solubility in solvents: ethyl acetate” value was “not more than 1 % by weight”.

Turning to `CCC(C)(C)OC(=O)N/C(=C1/C(=O)N(C(=O)OC(C)(C)CC)C(c2ccc(Cl)cc2)=C1C(=O)OC)c1ccc(Cl)cc1` [compound 1], the “solubility in solvents: PGMEA” value is reported as 2 % by weight, the “solubility in solvents: THF” value is 28.57 % by weight, the “solubility in solvents: chloroform” value was determined as 50 % by weight and the “solubility in solvents: cyclohexanone” value is reported as 10 % by weight. In addition, the “solubility in solvents: ethyl acetate” value was determined as 4.55 % by weight and the “solubility in solvents: methanol” value amounted to 0.2 % by weight.

`CCC(C)(C)OC(=O)N/C(=C1/C(=O)NC(c2ccc(Cl)cc2)=C1C(=O)OC)c1ccc(Cl)cc1` [compound 2]: the “solubility in solvents: PGMEA” value is 0.67 % by weight, the “solubility in solvents: THF” value worked out at 12.5 % by weight, the “solubility in solvents: chloroform” value came out at 2 % by weight and the “solubility in solvents: cyclohexanone” value was 5 % by weight. Also, the “solubility in solvents: ethyl acetate” value was 1 % by weight and the “solubility in solvents: methanol” value is 0.1 % by weight.
